Results published in US20260265316A1, “IMMUNOTHERAPEUTIC METHODS, COMPOUNDS, AND COMPOSITIONS FOR TREATING OR PREVENTING CELIAC DISEASE” (DBV Technologies, priority 2023, published 2026).

Columns and labels:
[1] = Method: Freeze-dried aliquots of the three gliadin polypeptide constructs Cv6, Av6, and 4K, as well as the four building blocks BB1, BB2a, BB3a, and BB4a were reconstituted in pure water, loaded on a PET-Ti backing film and dried in an oven (at ~30° C.). Immediately after drying, dry deposits were reconstituted at five different molarities (approximately 1.8, 0.91, 0.45, 0.091 or 0.045 mM) by pipetting up and down with either pure water (A), PBS 1× (B), or artificial perspiration (C). The concentration in soluble material was measured by HPLC at 215 nm from the solutions recovered from PET-Ti backing films. Data are median+interquartile range of the different molarities tested. Data are expressed as the percentage of soluble material recovered, based on the expected concentration (all values above 100% were set to 100).
Immediately after drying, dry deposits were reconstituted at five different concentrations (20, 10, 5, 1 and 0.5 mg/mL) by pipetting up and down with either pure water (A), PBS 1× (B), or artificial perspiration (C). The concentration in soluble material was measured by HPLC at 215 nm from the solutions recovered from PET-Ti backing films. Data are presented as median+interquartile range of the different molarities tested. Data are expressed as the percentage of soluble material recovered, based on the expected concentration (all values above 100% were set to 100). (D) As an illustration, photographs of the reconstitution of dry deposits with pure water are shown and annotated.
Immediately after drying, deposits were reconstituted by pipetting up and down with each of pure water, PBS 1× at pH 7.0, and artificial perspiration at pH 4.5, each at five different molarities (approximately 1.8, 0.91, 0.45, 0.091, and 0.045 mM). The concentration in soluble material was measured by HPLC at 215 nm.
Immediately after drying, patch deposits were reconstituted by pipetting up and down with each of pure water, PBS 1× at pH 7.0, and artificial perspiration at pH 4.5, at five different concentrations (20, 10, 5, 1, and 0.5 mg/mL). The concentration in soluble material was measured by HPLC at 215 nm.

[2] = Solubility upon drying on PET-Ti backing film and storage for 1 or 3 months at room temperature or 5° C.; assay type: physicochemical
Method: Backing films were stored for 1 month at room temperature (A, B, C) or 5° C. (D, E, F), away from light and humidity.
Backing films were stored for 3 months at room temperature (A, B, C) or 5° C. (D, E, F), away from light and humidity.
In order to evaluate their solubility upon deposition on a patch backing film and a period of storage, the three polypeptide constructs and the four individual building blocks were each dried on a PET-Ti backing film as described above. Backing films were stored at room temperature or 5° C. for 1 or 3 months.

[3] = stored at 5° C. for 1 month, PBS 1×
[4] = stored at 5° C. for 1 month, artificial perspiration
[5] = stored at 5° C. for 1 month, water
[6] = stored at 5° C. for 3 months, PBS 1×
[7] = stored at 5° C. for 3 months, artificial perspiration
[8] = stored at 5° C. for 3 months, water
[9] = stored at room temperature for 1 month, PBS 1×
[10] = stored at room temperature for 1 month, artificial perspiration
[11] = stored at room temperature for 1 month, water
[12] = stored at room temperature for 3 months, PBS 1×
[13] = stored at room temperature for 3 months, artificial perspiration
[14] = stored at room temperature for 3 months, water

Substance | median percentage of soluble material recovered from the patch backing film [1] | decrease in median percentage of soluble material recovered from the patch backing film compared to 4K [2, 3] | decrease in median percentage of soluble material recovered from the patch backing film compared to Av6 [2, 3] | decrease in median percentage of soluble material recovered from the patch backing film compared to Cv6 [2, 3] | decrease in median percentage of soluble material recovered from the patch backing film compared to 4K [2, 4] | decrease in median percentage of soluble material recovered from the patch backing film compared to Av6 [2, 4] | decrease in median percentage of soluble material recovered from the patch backing film compared to Cv6 [2, 4] | decrease in median percentage of soluble material recovered from the patch backing film compared to 4K [2, 5] | decrease in median percentage of soluble material recovered from the patch backing film compared to Av6 [2, 5] | decrease in median percentage of soluble material recovered from the patch backing film compared to Cv6 [2, 5] | decrease in median percentage of soluble material recovered from the patch backing film compared to 4K [2, 6] | decrease in median percentage of soluble material recovered from the patch backing film compared to Av6 [2, 6] | decrease in median percentage of soluble material recovered from the patch backing film compared to Cv6 [2, 6] | decrease in median percentage of soluble material recovered from the patch backing film compared to 4K [2, 7] | decrease in median percentage of soluble material recovered from the patch backing film compared to Av6 [2, 7] | decrease in median percentage of soluble material recovered from the patch backing film compared to Cv6 [2, 7] | decrease in median percentage of soluble material recovered from the patch backing film compared to 4K [2, 8] | decrease in median percentage of soluble material recovered from the patch backing film compared to Av6 [2, 8] | decrease in median percentage of soluble material recovered from the patch backing film compared to Cv6 [2, 8] | decrease in median percentage of soluble material recovered from the patch backing film compared to 4K [2, 9] | further results
H-PSGEGSFQPSQENPQ-NH2 [BB4a] | above 80% | 14% | 5% | 12% | 13% | 8% | 7% | 14% | 4% | 0% | 17% | 10% | 17% | 17% | 11% | 10% | 18% | 14% | 12% | 14% | decrease in median percentage of soluble material recovered from the patch backing film compared to Av6 [2, 9]: 10%; decrease in median percentage of soluble material recovered from the patch backing film compared to Cv6 [2, 9]: 13%; decrease in median percentage of soluble material recovered from the patch backing film compared to 4K [2, 10]: 14%; decrease in median percentage of soluble material recovered from the patch backing film compared to Av6 [2, 10]: 1%; decrease in median percentage of soluble material recovered from the patch backing film compared to Cv6 [2, 10]: 14%; decrease in median percentage of soluble material recovered from the patch backing film compared to 4K [2, 11]: 15%; decrease in median percentage of soluble material recovered from the patch backing film compared to Av6 [2, 11]: 7%; decrease in median percentage of soluble material recovered from the patch backing film compared to Cv6 [2, 11]: 11%; decrease in median percentage of soluble material recovered from the patch backing film compared to 4K [2, 12]: 11%; decrease in median percentage of soluble material recovered from the patch backing film compared to Av6 [2, 12]: 11%; decrease in median percentage of soluble material recovered from the patch backing film compared to Cv6 [2, 12]: 9%; decrease in median percentage of soluble material recovered from the patch backing film compared to 4K [2, 13]: 12%; decrease in median percentage of soluble material recovered from the patch backing film compared to Av6 [2, 13]: 6%; decrease in median percentage of soluble material recovered from the patch backing film compared to Cv6 [2, 13]: 12%; decrease in median percentage of soluble material recovered from the patch backing film compared to 4K [2, 14]: 13%; decrease in median percentage of soluble material recovered from the patch backing film compared to Av6 [2, 14]: 9%; decrease in median percentage of soluble material recovered from the patch backing film compared to Cv6 [2, 14]: 2%
H-PQPEQPEQPFPEQPQ-NH2 [BB2a] | above 80% | 16% | 7% | 14% | 14% | 8% | 7% | 20% | 10% | 6% | 16% | 9% | 16% | 20% | 15% | 14% | 19% | 15% | 13% | 15% | decrease in median percentage of soluble material recovered from the patch backing film compared to Av6 [2, 9]: 11%; decrease in median percentage of soluble material recovered from the patch backing film compared to Cv6 [2, 9]: 14%; decrease in median percentage of soluble material recovered from the patch backing film compared to 4K [2, 10]: 14%; decrease in median percentage of soluble material recovered from the patch backing film compared to Av6 [2, 10]: 1%; decrease in median percentage of soluble material recovered from the patch backing film compared to Cv6 [2, 10]: 14%; decrease in median percentage of soluble material recovered from the patch backing film compared to 4K [2, 11]: 18%; decrease in median percentage of soluble material recovered from the patch backing film compared to Av6 [2, 11]: 9%; decrease in median percentage of soluble material recovered from the patch backing film compared to Cv6 [2, 11]: 13%; decrease in median percentage of soluble material recovered from the patch backing film compared to 4K [2, 12]: 17%; decrease in median percentage of soluble material recovered from the patch backing film compared to Av6 [2, 12]: 17%; decrease in median percentage of soluble material recovered from the patch backing film compared to Cv6 [2, 12]: 15%; decrease in median percentage of soluble material recovered from the patch backing film compared to 4K [2, 13]: 16%; decrease in median percentage of soluble material recovered from the patch backing film compared to Av6 [2, 13]: 10%; decrease in median percentage of soluble material recovered from the patch backing film compared to Cv6 [2, 13]: 16%; decrease in median percentage of soluble material recovered from the patch backing film compared to 4K [2, 14]: 15%; decrease in median percentage of soluble material recovered from the patch backing film compared to Av6 [2, 14]: 10%; decrease in median percentage of soluble material recovered from the patch backing film compared to Cv6 [2, 14]: 4%
